According to US20260183274A1, “PDK1 REGULATORY COMPOUND AND COMPOSITION CONTAINING THE SAME” (PROVIBIO CO., LTD., priority 2024, published 2026):

Tested on: T cells isolated from mouse spleens
Test: T cell proliferation inhibition (CFSE flow cytometry, anti-CD3/anti-CD28 stimulation)
Format: cell-based
Details: mouse spleen T cells, 3 days; for inhibition at 0.01 µM / inhibition at 0.1 µM / inhibition at 1 µM / inhibition at 10 µM / inhibition at 30 µM / inhibition at 50 µM: Mus musculus, T-cell, 72 h, read-out: Proliferation inhibition rate (%)
Protocol: To verify the T cell proliferation inhibitory effect of the compounds according to the present invention, the following experiment was performed based on flow cytometry analysis using carboxyfluorescein diacetate succinimidyl ester (CFSE), a fluorescent dye that binds to intracellular molecules via covalent bonds.
Spleens were extracted from 7-week-old C57BL/6 mice, ground, and then separated into single cells using a strainer (40 μm pore size, SPL). Red blood cells were removed using ACK (Ammonium-Chloride-Potassium) lysis buffer to isolate white blood cells.
Finally, using a MACS Magnetic Stand and LS column, T cells were isolated from the spleen.
The T cells isolated from the spleen were resuspended in 1 mL of free medium (RPMI-1640+200 U/mL penicillin+200 μg/mL streptomycin), and 0.3 μL of CFSE (10 mM) was added. The mixture was incubated at 37° C. for 5 minutes.
Free medium (10 mL) was added to stop the reaction, and the cells were centrifuged to obtain the cell pellet.
RPMI 1640 medium containing 10% FBS, 100 U/mL penicillin, 100 μg/mL streptomycin, and resuspended the cells. The cells were then seeded into a 96-well plate at a density of 2×10^5 cells per well and activated with CD3 and CD28 antibodies (0.5 μg/mL each) to activate T cells.
The compound diluted in DMSO was added at concentrations of 10 nM, 100 nM, 1 μM, 10 μM, 30 μM, and 50 μM, with three wells per concentration, and cultured at 37° C. and 5% CO2 for three days. The cells were then analyzed using a FACS Canto instrument.
The proliferation inhibition rate (%) was calculated using the following formula: […]

| Compound | Proliferation inhibition rate (%) (compound 100 nM) | Proliferation inhibition rate (%) (compound 1 μM) | Proliferation inhibition rate (%) (compound 10 μM) | Proliferation inhibition rate (%) (compound 30 μM) | Proliferation inhibition rate (%) (compound 50 μM) | inhibition at 0.01 µM (compound 10 nM) [%] | inhibition at 0.1 µM (compound 100 nM) [%] | inhibition at 1 µM (compound 1 μM) [%] | inhibition at 10 µM (compound 10 μM) [%] | inhibition at 30 µM (compound 30 μM) [%] | inhibition at 50 µM (compound 50 μM) [%] | further results |
| --- | --- | --- | --- | --- | --- | --- | --- | --- | --- | --- | --- | --- |
| Nc1nc(NC(=O)CCCCCCCCCCCCN2CCC(O)CC2)nc2nc[nH]c12 [Compound 13, 12-(4-hydroxypiperidin-1-yl)dodecyl-N-(6-aminopurine-2-yl) carboxamide] | – | – | – | – | – | – | – | – | – | – | – | Proliferation inhibition rate (%) (compound 10 nM, listed as GO87, 0.01 µM): 9.13%; Proliferation inhibition rate (%) (compound 100 nM, listed as GO87, 0.1 µM): 1.71%; Proliferation inhibition rate (%) (compound 10 μM, listed as GO87, 10 µM): 81.15% |
| Nc1ncccc1C(=O)NCCCCCCCCCCCCN1CCC2CCCCC2C1 (stereo not shown) [Compound 16, 2-Amino-N-(12-(octahydroisoquinolin-2 (1H)-yl)dodecyl) nicotinamide] | −2.93 | 100.00 | 100.00 | 100.00 | 100.00 | – | – | – | – | – | – | Proliferation inhibition rate (%) (compound 10 nM): 4.13% |
| Nc1ncccc1C(=O)NCCCCCCCCCCCCN1CCc2ccccc2C1 [Compound 17, 2-Amino-N-(12-(3,4-dihydroisoquinolin-2 (1H)-yl)dodecyl) nicotinamide] | – | – | – | – | – | – | – | – | – | – | – | Proliferation inhibition rate (%) (compound 10 nM, listed as PBK-2024-004, 0.01 µM): 0.00%; Proliferation inhibition rate (%) (compound 100 nM, listed as PBK-2024-004, 0.1 µM): −14.00%; Proliferation inhibition rate (%) (compound 1 μM, listed as PBK-2024-004, 1 µM): 100.00%; Proliferation inhibition rate (%) (compound 10 μM, listed as PBK-2024-004, 10 µM): 100.00% |
| CN(CCCCCCCCCCCCNC(=O)c1cccnc1N)C1CCCCC1 [Compound 34, 2-Amino-N-(12-(cyclohexyl(methyl)amino)dodecyl) nicotinamide] | 100.00 | 100.00 | 100.00 | 100.00 | 100.00 | – | – | – | – | – | – | Proliferation inhibition rate (%) (compound 10 nM): 2.08% |
| CC1CN(CCCCCCCCCCCCNC(=O)c2cccnc2N)C(C)CN1.Cl (stereo not shown) [Compound 36, 2-Amino-N-(12-(2,5-dimethylpiperazin-1-yl)dodecyl) nicotinamide hydrochloride] | 100.00 | 100.00 | 100.00 | 100.00 | 100.00 | – | – | – | – | – | – | Proliferation inhibition rate (%) (compound 10 nM): −38.89% |
| Nc1ncccc1C(=O)NCCCCCCCCCCCCN1CCC(O)CC1 [Compound 48, 2-Amino-N-(12-(4-hydroxypiperidin-1-yl)dodecyl) nicotinamide] | 100.00 | 100.00 | 100.00 | 100.00 | 100.00 | – | – | – | – | – | – | Proliferation inhibition rate (%) (compound 10 nM, listed as PBK-2025-012, 0.01 µM): −18.31% |
| CN(CCCCCCCCCCCCNC(=O)c1cccnc1N)C(C)(C)C [Compound 53, 2-Amino-N-(12-(tert-butyl(methyl)amino)dodecyl) nicotinamide] | 100.00 | 100.00 | 100.00 | 100.00 | 100.00 | – | – | – | – | – | – | Proliferation inhibition rate (%) (compound 10 nM): −26.59% |
| O=C(NCCCCCCCCCCCCF)c1cccnc1Br [Compound 58, 2-Bromo-N-(12-fluoro-dodecyl)-nicotinamide] | – | – | – | – | – | -4.38 | 1.78 | 1.92 | 20 | 78.9 | 95.8 | – |
| O=C(NCCCCCCCCCCCCF)c1ccncc1Nc1cccc(C(F)(F)F)c1 [Compound 59, N-(12-fluoro-dodecyl)-3-(3-trifluoromethyl-phenylamino)-isonicotinamide] | – | – | – | – | – | 0 | 0 | 0 | -8.32 | 78.4 | 99.8 | – |
| O=C(NCCCCCCCCCCCCF)c1cnccc1Cl [Compound 60, 4-Chloro-N-(12-fluoro-dodecyl)-nicotinamide] | – | – | – | – | – | -1.92 | 8.77 | 6.85 | 63.5 | 100 | 100 | – |
| CS(=O)(=O)c1ncccc1C(=O)NCCCCCCCCCCCCF [Compound 67, N-(12-fluoro-dodecyl)-2-methylsulfonyl-nicotinamide] | – | – | – | – | – | 0 | 0 | 0 | -3.83 | 73.8 | 100 | – |
| O=C(NCCCCCCCCCCCCF)c1ccncc1I [Compound 76, N-(12-fluoro-dodecyl)-3-iodo-isonicotinamide] | – | – | – | – | – | 0 | 0 | 0 | -4.95 | 23.7 | 97.8 | – |
| N#CCCCCCCCCCCNC(=O)c1ccccc1Br [Compound 77, 2-Bromo-N-(10-cyano-decyl)benzamide] | – | – | – | – | – | 1.51 | -3.97 | 15.3 | 2.09 | 3.8 | 32.2 | – |
| Nc1ncccc1C(=O)NCCCN1CCOCC1 [Compound 78, 2-amino-N-(3-morpholin-4-yl-propyl)nicotinamide] | – | – | – | – | – | -7.14 | -4.19 | -3.73 | 0.68 | 4.51 | 8.76 | – |
| N#CCCCCCCCCCCNC(=O)c1cccnc1N [Compound 79, 2-amino-N-(10-cyano-decyl)-nicotinamide] | – | – | – | – | – | -2.19 | 1.23 | 7.12 | 11 | 27.9 | 34.7 | – |
| CCOC(=O)C1CCCN(CCCCCCCCCCCCNC(=O)c2cccnc2N)C1 (stereo not shown) [Compound 92, ethyl 1-(12-(2-aminonicotinamido)dodecyl)piperidine-3-carboxylate] | – | – | – | – | – | -9.65 | 100 | 100 | 100 | 100 | 100 | – |
| COC(=O)C1CCN(CCCCCCCCCCCCNC(=O)c2cccnc2N)CC1 [Compound 93, methyl 1-(12-(2-aminonicotinamido)dodecyl)piperidine-4-carboxylate] | – | – | – | – | – | -12.9 | 100 | 100 | 100 | 100 | 100 | – |
| COC1CCN(CCCCCCCCCCCCNC(=O)c2cccnc2N)CC1 [Compound 94, 2-amino-N-(12-(4-methoxypiperidin-1-yl)dodecyl) nicotinamide] | 100.00 | 100.00 | 100.00 | 100.00 | 100.00 | – | – | – | – | – | – | Proliferation inhibition rate (%) (compound 10 nM): −25.44% |
| COCCN1CCN(CCCCCCCCCCCCNC(=O)c2cccnc2N)CC1 [Compound 95, 2-amino-N-(12-(4-(2-methoxyethyl)piperazin-1-yl)dodecyl)nicotinamide] | – | – | – | – | – | 94.4 | 100 | 100 | 100 | 100 | 100 | – |
| C=CCN(C)CCCCCCCCCCCCNC(=O)c1cccnc1N [Compound 96, N-(12-(allyl(methyl)amino)dodecyl)-2-aminonicotinamide] | – | – | – | – | – | -0.58 | 100 | 100 | 100 | 100 | 100 | – |
| Nc1ncccc1C(=O)NCCCCCCCCCCCCN1CCN(C=O)CC1 [Compound 97, 2-amino-N-(12-(4-formylpiperazin-1-yl)dodecyl) nicotinamide] | 40.64 | 100.00 | 100.00 | 100.00 | 100.00 | – | – | – | – | – | – | Proliferation inhibition rate (%) (compound 10 nM): 3.51% |
